Measured values published in EP0966960A1, “Agent for inhibiting carcinogenesis or tumor metastasis” (DAINIPPON INK AND CHEMICALS, INC., priority 1998, dated 1999).

Experiments:
[1] = tested on: colon cancer strain highly metastasizable to liver (MOUSE COLON 26); experiment: Inhibition of metastasis of colon cancer to liver; type: in vivo, BALB/c mouse; settings: for Number of visible tumor tubers (average ± SD): liver
Method: The abdomen of a BALB/c mouse was sectioned, and 2 × 10^4 cells of a colon cancer strain highly metastasizable to liver (MOUSE COLON 26) were injected into the portal vein. Zeaxanthin (4 µg/mouse in Test Example 1; 40 µg/mouse in Test Example 2; 400 µg/mouse in Test Example 3) and all-trans retinoic acid (ATRA) as a positive control were orally administered everyday for 5 consecutive days after the inoculation with tumor cells and then the administration was discontinued for 2 days. The cycle of the 5-day administration and the 2-day discontinuation was repeated twice. Twenty days later, the mouse was sacrificed, and the number of visible tumor tubers in the liver was counted. In Table 2, the mark "*" indicates a significant difference when p < 0.005 (Whitney's U-test).

[2] = tested on: Naturally Occurring Hepatoma; experiment: Carcinogenesis-inhibiting effect with regard to naturally occurring hepatoma; type: in vivo, C3H/He female mice
Method: C3H/He female mice (control group: 14 mice; test group: 12 mice), in which hepatoma is known to occur naturally, were allowed to freely take food and water for 40 weeks. For the mice of the test group, 20 mg zeaxanthin (having a purity of 98.5%) which was obtained in a manner similar to that of the above example of production of zeaxanthin was suspended in 1 ml dimethyl sulfoxide (DMSO), and thereafter the suspension was added to the drinking water of the test so that the final concentration of zeaxanthin was 0.005%. On the other hand, for the control group, only DMSO in the same amount was added to the drinking water. At the end of the 40 weeks, both groups of mice were sacrificed, and the number of tumors which occurred in the liver was counted.

[3] = Acute toxicity test on mice; set-up: species or system mouse (ICR male); settings: mouse, in vivo; oral by gastric probe, 1000 or 2000 mg/kg, n=3, 7 days observation; approximate, estimated from survival rate
Method: Using a gastric probe, zeaxanthin (having a purity of 98.5%) was forcibly orally administered to each mouse (ICR male weighing 20∼25 g, n=3) in an amount of 1000 or 2000 mg/kg. After the oral administration, the mice were reared in a cage for 7 days to observe the number of deaths and general conditions. An approximate median lethal dose (LD50, in mg/kg) was estimated from the survival rate of the mice after observation.

skin cancer = experiment: Inhibition of carcinogenesis (skin), 7,12-dimethylbenz[a]anthracene / TPA; type: in vivo, ICR male mouse
Method: The back of an ICR male mouse (control group: 15 mice; test group: 14 mice) was shaved, and 100 µg of 7,12-dimethylbenz[a]anthracene in 100 µl of acetone was applied thereto. Two days after the application, application of 1.6 nmol of 12-O-tetradecanoylphorbal-13-acetate (TPA) in 100 µl of acetone was begun and repeated twice a week. The duration of carcinogenesis promotion was set to 15 weeks.
An hour before every TPA application, 160 nmol zeaxanthin (which makes the molar ratio of TPA to zeaxanthin 1:100) in 100 µl of acetone was applied to the mice of test group. After the 15-week duration of carcinogenesis promotion, the ratio of occurrence of skin tumor and the average number of tumors were measured.
(§1) In Table 5, those values in parentheses indicate values obtained by dividing the number of mice in each group in which skin cancer occurred by the total number of mice in each group. The average number of tumors was obtained by dividing the total number of tumors in all mice in each group by the total number of mice in each group.

lung cancer = experiment: Inhibition of carcinogenesis (lung), 4-nitroquinoline-1-oxide initiator / glycerin promoter; type: in vivo, ddY mice
Method: As a carcinogenesis initiator, 4-nitroquinoline-1-oxide dissolved in a solution of olive oil and cholesterol mixed in the ratio of 20:1 was administered subcutaneously in a single dose to ddY mice (a control group of 15 mice and a test group of 15 mice) in an amount of 10 mg/3.3ml/kg weight. Four weeks after administration, an 8% water solution of glycerin as a carcinogenesis promoter was given to the mice of the control group as drinking water for 25 weeks in a manner such that they could take it freely. (The duration of carcinogenesis promotion was 25 weeks).
In a manner similar to that for the control group, the carcinogenesis initiator was subcutaneously administered to the mice of the test group, and 4 weeks after the administration, an 8% water solution of glycerin as a carcinogenesis promoter was given to the mice of the test group as drinking water for 25 weeks in a manner such that they could take it freely, while zeaxanthin suspended in a liquid mixture of olive oil and "Tween 80" was forcibly administered to the mice of the test group 3 times a week throughout the 25-week duration of carcinogenesis promotion in an amount of 0.2 g per mouse per administration.
In addition, food and drinking water was given to the mice in a manner such that they could take it freely. Twenty five weeks after the start of the administration of zeaxanthin, that is, after the duration of carcinogenesis promotion was completed, the mice of both the control group and the test group were sacrificed, and the number of mice in which lung cancer occurred, and the average number of tumors were counted.
as §1, with “4,” for “5,”, “lung” for “skin”

B16-BL6 melanoma cells = experiment: Inhibition of invasion of basement membrane (Transwell chamber); type: cell-based; settings: 4 hours
Method: The action mechanism of zeaxanthin for inhibiting metastasis of colon cancer to the liver in Example 2 was examined using a Transwell chamber.
A chamber which is separated into two layers (upper and lower layers) by a membrane filter having pores of 8 µm in diameter was used, the upper surface of the filter being coated with 5 µg of matrigel (a substrate for restructuring a basement membrane), and the lower surface being coated with 1 µg of fibronectin. B16-BL6 melanoma cells having a cell density of […] were added to the upper layer of the chamber, and were incubated in a 5%-CO2 incubator at 37°C for 4 hours in the presence of 0.05∼500 µM of zeaxanthin. After the incubation, the number of cells which invaded the surface of the lower part of the filter and shifted thereto were counted using an optical microscope. […]

[4] = from average number of tumors, test group versus control group

CC1=C(/C=C/C(C)=C/C=C/C(C)=C/C(=O)O)C(C)(C)CCC1 [ATRA, all-trans retinoic acid, reference compound]
Number of visible tumor tubers (average ± SD) ([1]; positive control, orally, dose not given, twenty days later, * p < 0.005): 0.83 ± 1.17* | Average weight of liver ([1]; positive control, orally, dose not given, twenty days later): 0.92 g

CC1=C(/C=C/C(C)=C/C=C/C(C)=C/C=C/C=C(C)/C=C/C=C(C)/C=C/C2=C(C)C[C@@H](O)CC2(C)C)C(C)(C)C[C@H](O)C1 [zeaxanthin]
inhibition rate ([2]; test group versus control group, 40 weeks): 95% | Number of mice in which tumor occurred (percentage) ([2]; zeaxanthin 0.005% in drinking water, 40 weeks, 12 mice (control 35.7%)): 8.3% | Number of mice in which tumor occurred ([2]; zeaxanthin 0.005% in drinking water, 40 weeks, 12 mice, liver tumors (control 5 of 14)): 1 | Average number of tumors ([2]; zeaxanthin 0.005% in drinking water, 40 weeks, liver (control 1.75)): 0.08 | LD50 at 168 h [3]: > 2000 mg/kg | Average number of tumors (skin cancer; 160 nmol applied an hour before every TPA application, 15 weeks (control 1.60)): 0.86 | Number of mice in which skin cancer occurred (divided by total number of mice) (skin cancer; 160 nmol applied an hour before every TPA application, 15 weeks (control 47%)): 21% | Number of mice in which skin cancer occurred (skin cancer; 160 nmol applied an hour before every TPA application, 15 weeks, 14 mice (control 7 of 15)): 3 | Inhibition ratio of carcinogenesis (skin cancer; [4]): 46% | Average number of tumors (lung cancer; 0.2 g per mouse per administration, 3 times a week, 25 weeks (control 1.40)): 0.38 | Number of mice in which lung cancer occurred (divided by total number of mice) (lung cancer; 0.2 g per mouse per administration, 3 times a week, 25 weeks (control 73%)): 33% | Number of mice in which lung cancer occurred (lung cancer; 0.2 g per mouse per administration, 3 times a week, 25 weeks, 15 mice (control 11 of 15)): 5 | Inhibition ratio of carcinogenesis (lung cancer; [4]): 73% | Number of cells which invaded/shifted to basement membrane (B16-BL6 melanoma cells; 0.05 µM, 37°C (DMSO only 157 ± 21)): 137 ± 17 | Number of cells which invaded/shifted to basement membrane (B16-BL6 melanoma cells; 0.5 µM, 37°C): 119 ± 17 | Number of cells which invaded/shifted to basement membrane (B16-BL6 melanoma cells; 5 µM, 37°C, * p < 0.05): 109 ± 12* | Number of cells which invaded/shifted to basement membrane (B16-BL6 melanoma cells; 50 µM, 37°C, ** p < 0.005): 88 ± 7** | Number of cells which invaded/shifted to basement membrane (B16-BL6 melanoma cells; 500 µM, 37°C, ** p < 0.005): 36 ± 12** | Number of visible tumor tubers (average ± SD) ([1]; 4 µg/mouse orally, 5 days on / 2 days off, cycle repeated twice, twenty days later (no administration 12.25 ± 6.13)): 6.86 ± 2.27 | Average weight of liver ([1]; 4 µg/mouse orally, twenty days later (no administration 2.16)): 1.36 g | Number of visible tumor tubers (average ± SD) ([1]; 40 µg/mouse orally, 5 days on / 2 days off, cycle repeated twice, twenty days later, * p < 0.005): 1.87 ± 1.96* | Average weight of liver ([1]; 40 µg/mouse orally, twenty days later): 0.99 g | Number of visible tumor tubers (average ± SD) ([1]; 400 µg/mouse orally, 5 days on / 2 days off, cycle repeated twice, twenty days later, * p < 0.005): 1.00 ± 2.13* | Average weight of liver ([1]; 400 µg/mouse orally, twenty days later): 0.99 g

CC1=C(/C=C/C(C)=C/C=C/C(C)=C/C=C/C=C(C)/C=C/C=C(C)/C=C/C2=C(C)CCCC2(C)C)C(C)(C)CCC1 [β-carotene, reference compound]
effect in inhibiting natural carcinogenesis ([2]; experiments conducted in the same manner as in Example 1): no such effect
